Article PMC10005301, “Prediction of the n-Octanol/Water Partition Coefficients of Basic Compounds Using Multi-Parameter QSRR Models Based on IS-RPLC Retention Behavior in a Wide pH Range” (Molecules, 2023)
Read-outs that look alike come from different tables or passages of the source.

Tests used:
[1] = logD determined by multi-parameter QSRR models from IS-RPLC logkw; settings: IS-RPLC retention (logkw)
Protocol: Multi-parameter QSRR models including logD, logkw, ne, A, and B were established using the multiple linear regression (MLR) method. In the process of linear fitting, ne, A, B, and their different combinations were introduced to optimize the models.
The logD values reported in the literature for these four compounds were calculated using Equation (S3) with corresponding pKa, logP, and pH values.
(§1) At each pH, the retention time (tR) of every analyte was determined for at least four different volume fractions (φ) of methanol. All the tR values of the solutes were obtained by averaging the results of at least three independent injections. The tR value was corrected using dual-point retention time correction (DP-RTC). For a detailed description of the process, refer to our previous work. For the different hydrophobicities of the studied compounds, benzene, toluene, and benzyl alcohol were used as anchor compounds in the DP-RTC method. The dead time t0 was determined using uracil. For each solute, the logarithm of k was plotted against φ, and logkw was obtained using the Equation (S1). The logD values of the model compounds were calculated using Equation (S3), and the logD–logkw models were established with Equation (S4). The statistical analysis for the regression model was accomplished using Origin 9.4.

[2] = IS-RPLC retention on silica-based C18 column, logkw by linear solvent strength model; type: physicochemical
Protocol: (§2) The retention behavior of the 42 basic compounds (Table 1) were investigated at different ratios of methanol (φ = 0.7–0.1, the interval was 0.1 or 0.05 based on the retention of the investigated solutes). The logk values were plotted versus φ for each solute at pH 7.0, pH 8.0, pH 9.0, and pH 10.0. […] The logD values of the model compounds and verification compounds calculated using Equation (S3) based on the logP and pH values are also listed in Table 1.
The column temperature was set at 30 °C. Methanol and 20 mmol/L ammonium phosphate buffer (pH = 7.0, 8.0, 9.0, 10.0) was used as the mobile phase to perform isocratic elution. The injection volume was 10 µL and the detection wavelength for each eluted compound was set at its optimum absorption wavelength.
as §1, with “9.4. […]” for “9.4.”
(§3) Where, k is the capacity factor, φ is the volume fraction of organic modifier in the mobile phase, and S is the constant obtained by linear regression in the equations. […]
The Eqs. (S1) and (S2) are the basis for the determination of logP by revered- phase liquid chromatography (RPLC) method. For dissociative solutes, it has been confirmed by many studies that the logD calibrated from logP has a better linear correlation with logkw than logP. […]

[3] = parameters: method as in UFZ-LSER database; settings: hydrogen bonding parameter B; ref UFZ-LSER database; cited from earlier work
[4] = ref database module of ACD/Labs software, cited from earlier work; for pKa: Table 4, verification compounds
[5] = ref database module of ACD/Labs software, cited from earlier work
[6] = for logDpH 7.0: pH 7; for logDpH 9.0: pH 9; for logDpH 10.0: pH 10
Description: as §2
as §1, with “9.4. […]” for “9.4.”
as §3
and logkw, which is usually called Collander equation [25 ]. lo g lo g wPm k n= + (S2)
Where, m and n are constants obtained by linear regression.
The Eqs. (S1) and (S2) are the basis for the determination of logP by revered- phase liquid chromatography (RPLC) method. For dissociative solutes, it has been confirmed by many studies that the logD calibrated from logP has a better linear correlation with logkw than logP.
For basic compounds, the logD value can be calibrated from Eq. (S3), and the Collander equation can be rewritten into Eq. (S4). log log( )D − −+ −+= + ++P […]
lo g ' lo g 'Dm k n= +w (S4)
Where, pKa1, pKa2 , … p Kan are the dissociation constants of basic compounds of corresponding acids in the mobile phase, pH is the pH value of mobile phase, m′ and n′ are fitting parameters. Han et al. pointed out that although mobile phase pH and pKa of solutes will change along with the varied organic modifier fraction, the difference between a couple of relevant pH and pKa is a constant. Therefore, the used pH and pKa in this paper were both the values obtained at 100% aqueous phase. […]

[7] = pH 7.0, methanol/20 mmol/L ammonium phosphate buffer, Welch Xtimate C18, 30 °C, 100% aqueous extrapolation
[8] = pH 8.0, methanol/20 mmol/L ammonium phosphate buffer, Welch Xtimate C18, 30 °C, 100% aqueous extrapolation
[9] = pH 9.0, methanol/20 mmol/L ammonium phosphate buffer, Welch Xtimate C18, 30 °C, 100% aqueous extrapolation
[10] = pH 10.0, methanol/20 mmol/L ammonium phosphate buffer, Welch Xtimate C18, 30 °C, 100% aqueous extrapolation
[11] = Table 4, verification compounds

| SMILES | chromatographic logD ([1]; pH 7) | chromatographic logD ([1]; pH 8) | chromatographic logD ([1]; pH 9) | chromatographic logD ([1]; pH 10) | logkw-pH 7.0 [2, 7] | logkw-pH 8.0 [2, 8] | logkw-pH 9.0 [2, 9] | logkw-pH 10.0 [2, 10] | B [3] | pKa [4] | pKa1 [4] | logP [5, 11] | logP ([5]; n-octanol/water) | logDpH 7.0 [6] | logDpH 8.0 ([6]; pH 8) | logDpH 9.0 [6] | logDpH 10.0 [6] | other results |
| --- | --- | --- | --- | --- | --- | --- | --- | --- | --- | --- | --- | --- | --- | --- | --- | --- | --- | --- |
| Nc1ccc(Br)cc1 [4-Bromoaniline] | 1.83 | 1.81 | 1.85 | 1.81 | 1.91 | 1.98 | 1.99 | 1.99 | 1.19 | 3.89 | 3.89 | 2.05 | 2.05 | 1.74 | 1.74 | 1.74 | 1.74 | – |
| c1ccc(CNCc2ccccc2)cc1 [Dibenzylamine] | 1.52 | 2.36 | 2.81 | 3 | 2.42 | 2.99 | 3.28 | 4.54 | 1.30 | 8.76 | 8.76 | 3.03 | 3.03 | 1.26 | 2.20 | 2.83 | 3.01 | – |
| COc1ccc(N)cc1 [4-Methoxyaniline] | – | – | – | – | – | – | – | – | 1.05 | – | 5.36 | – | 0.80 | 0.79 | – | 0.80 | 0.80 | logkw-pH 7.0 ([2]; pH 7): 1.05; logkw-pH 8.0 ([2]; pH 8): 0.99; logkw-pH 9.0 ([2]; pH 9): 1.07; logkw-pH 10.0 ([2]; pH 10): 1.11; logDpH 8.0 ([6]; pH 8.0, calculated with literature logP, pKa and pH, Equation (S3)): 0.80 |
| Cc1cccc(C)n1 [2,6-Dimethylpyridine] | – | – | – | – | 1.68 | 1.76 | 1.78 | 1.81 | 0.61 | – | 6.65 | – | 1.68 | 1.52 | 1.66 | 1.68 | 1.68 | – |
